Source: patent publication US20020115104A1, “MMSC2 - an MMAC1 interacting protein” (priority 1998, published 2002)
*: point of attachment. Biotin = O=C1N[C@H]2[C@H](CS[C@H]2CCCCC(=O)*)N1

How the values were obtained:
MMSC2 PDZ domain 8 (P8) = molecular target: T1, MMSC2 PDZ domain 8 (P8) (Homo sapiens, UniProt O75970); assay: PDZ binding assay (ELISA), PDZ domain 8; settings: immobilized GST-PDZ domain 8 (P8); biotinylated peptide pre-bound to streptavidin-alkaline phosphatase; colorimetric phosphatase assay
T1 construct: 1316-1398; made in house; host or cells: E. coli
T1 sequence (O75970 1316-1398 isoform O75970-3): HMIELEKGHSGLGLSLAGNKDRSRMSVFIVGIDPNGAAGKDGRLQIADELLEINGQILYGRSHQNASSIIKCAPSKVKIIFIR
From the text: (§1) cDNAs encoding each of the MMSC2 PDZ domains (amino acid residues identified in Table 1), and any desired control proteins, were generated by PCR and subcloned as glutathione S-transferase (GST) fusions in pGEX vectors (Pharmacia). After sequencing to confirm expression construct integrity, the resulting clones were expressed in E. coli and the desired fusion proteins isolated with glutathione-agarose and recovered with glutathione elution. These fusion proteins or control proteins were then adsorbed to different wells of a 96-well ELISA plate and remaining sites blocked with BSA. Synthetic commercially synthesized peptides encoding the desired PDZ-binding domain (i.e., the 16 C-terminal amino acids of MMAC1, or the C-terminal peptide sequences of interacting proteins identified by the approach of Example 2, or the C-terminal peptide sequences identified by the approach of Example 3), or a control peptide, and biotinylated at the amino-terminus, were pre-bound to streptavidin-alkaline phosphatase in a 4:1 molar ratio. […] Bound peptide/streptavidin-alkaline phosphatase complex was then quantitated by a colorimetric phosphatase assay read on a 96-well plate reader. […]
(§2) The relative affinity of each of the 13 PDZ domains encoded by MMSC2 for an MMAC1 C-terminal PDZ peptide as measured by an ELISA assay is set forth in Table 2.

MMSC2 PDZ domain 6 (P11) = molecular target: T2, MMSC2 PDZ domain 6 (P11) (Homo sapiens, UniProt O75970); assay: PDZ binding assay (ELISA), PDZ domain 6; settings: immobilized GST-PDZ domain 6 (P11); biotinylated peptide pre-bound to streptavidin-alkaline phosphatase; colorimetric phosphatase assay
T2 construct: 1007-1090; made in house; host or cells: E. coli
T2 sequence (O75970 1007-1090 isoform O75970-3): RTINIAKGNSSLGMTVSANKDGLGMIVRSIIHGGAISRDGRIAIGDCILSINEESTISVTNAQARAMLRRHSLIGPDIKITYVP
From the text: as §1, §2

MMSC2 PDZ domain 10 (P1) = molecular target: T3, MMSC2 PDZ domain 10 (P1) (Homo sapiens, UniProt O75970); assay: PDZ binding assay (ELISA), PDZ domain 10; settings: for A405: immobilized GST-PDZ domain 10 (P1), biotinylated peptide pre-bound to streptavidin-alkaline phosphatase, colorimetric phosphatase assay
T3 construct: 1595-1677; made in house; host or cells: E. coli
T3 sequence (O75970 1595-1677 isoform O75970-3): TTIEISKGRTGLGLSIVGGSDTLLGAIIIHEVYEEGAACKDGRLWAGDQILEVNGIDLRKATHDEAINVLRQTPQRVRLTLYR
From the text: (§3) cDNAs encoding each of the MMSC2 PDZ domains (amino acid residues identified in Table 1), and any desired control proteins, were generated by PCR and subcloned as glutathione S-transferase (GST) fusions in pGEX vectors (Pharmacia). After sequencing to confirm expression construct integrity, the resulting clones were expressed in E. coli and the desired fusion proteins isolated with glutathione-agarose and recovered with glutathione elution. These fusion proteins or control proteins were then adsorbed to different wells of a 96-well ELISA plate and remaining sites blocked with BSA. Synthetic commercially synthesized peptides encoding the desired PDZ-binding domain (i.e., the 16 C-terminal amino acids of MMAC1, or the C-terminal peptide sequences of interacting proteins identified by the approach of Example 2, or the C-terminal peptide sequences identified by the approach of Example 3), or a control peptide, and biotinylated at the amino-terminus, were pre-bound to streptavidin-alkaline phosphatase in a 4:1 molar ratio. The biotinylated peptide streptavidin-alkaline phosphatase complexes were then blocked with free biotin. These pre-bound peptide streptavidin-alkaline phosphatase complexes were then incubated with the immobilized PDZ domains in wash buffer containing PBS, BSA and triton-X100. Unbound material was removed with repeated washes. Bound peptide/streptavidin-alkaline phosphatase complex was then quantitated by a colorimetric phosphatase assay read on a 96-well plate reader. The following peptides were used in the initial study:
as §2

MMSC2 PDZ domain 13 (P4) = molecular target: T4, MMSC2 PDZ domain 13 (P4) (Homo sapiens, UniProt O75970); assay: PDZ binding assay (ELISA), PDZ domain 13; settings: for A405: immobilized GST-PDZ domain 13 (P4), biotinylated peptide pre-bound to streptavidin-alkaline phosphatase, colorimetric phosphatase assay
T4 construct: 1953-2037; made in house; host or cells: E. coli
T4 sequence (O75970 1953-2037 isoform O75970-3): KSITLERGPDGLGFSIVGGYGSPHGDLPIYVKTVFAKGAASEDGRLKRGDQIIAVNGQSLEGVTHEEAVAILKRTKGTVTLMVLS
From the text: as §3, §2

MMSC2 PDZ domain 5 (P12) = molecular target: T5, MMSC2 PDZ domain 5 (P12) (Homo sapiens, UniProt O75970); assay: PDZ binding assay (ELISA), PDZ domain 5; settings: immobilized GST-PDZ domain 5 (P12); biotinylated peptide pre-bound to streptavidin-alkaline phosphatase; colorimetric phosphatase assay
T5 construct: 699-785; made in house; host or cells: E. coli
T5 sequence (O75970 699-785 isoform O75970-3): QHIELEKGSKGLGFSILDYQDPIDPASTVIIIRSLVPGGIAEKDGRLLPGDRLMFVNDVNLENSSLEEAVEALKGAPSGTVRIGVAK
From the text: as §1, §2

MMSC2 PDZ domain 4 (P10) = molecular target: T6, MMSC2 PDZ domain 4 (P10) (Homo sapiens, UniProt O75970); assay: PDZ binding assay (ELISA), PDZ domain 4; settings: immobilized GST-PDZ domain 4 (P10); biotinylated peptide pre-bound to streptavidin-alkaline phosphatase; colorimetric phosphatase assay
T6 construct: 555-632; made in house; host or cells: E. coli
T6 sequence (O75970 555-632 isoform O75970-3): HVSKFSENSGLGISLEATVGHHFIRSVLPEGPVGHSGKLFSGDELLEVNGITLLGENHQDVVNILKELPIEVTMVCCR
From the text: as §1, §2

MMSC2 PDZ domain 1 (P15) = molecular target: T7, MMSC2 PDZ domain 1 (P15) (Homo sapiens, UniProt O75970); assay: PDZ binding assay (ELISA), PDZ domain 1; settings: immobilized GST-PDZ domain 1 (P15); biotinylated peptide pre-bound to streptavidin-alkaline phosphatase; colorimetric phosphatase assay
T7 construct: 136-222; made in house; host or cells: E. coli
T7 sequence (O75970 136-222 isoform O75970-3): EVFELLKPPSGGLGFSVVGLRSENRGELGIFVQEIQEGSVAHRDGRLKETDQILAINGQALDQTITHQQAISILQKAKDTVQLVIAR
From the text: as §1, §2

MMSC2 PDZ domain 7 (P9) = molecular target: T8, MMSC2 PDZ domain 7 (P9) (Homo sapiens, UniProt O75970); assay: PDZ binding assay (ELISA), PDZ domain 7; settings: for A405: immobilized GST-PDZ domain 7 (P9), biotinylated peptide pre-bound to streptavidin-alkaline phosphatase, colorimetric phosphatase assay
T8 construct: 1150-1241; made in house; host or cells: E. coli
T8 sequence (O75970 1150-1241 isoform O75970-3): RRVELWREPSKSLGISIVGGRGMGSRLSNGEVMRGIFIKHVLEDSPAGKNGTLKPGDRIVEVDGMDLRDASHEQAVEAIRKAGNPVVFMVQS
From the text: as §3, §2

MMSC2 PDZ domain 9 (P7) = molecular target: T9, MMSC2 PDZ domain 9 (P7) (Homo sapiens, UniProt O75970); assay: PDZ binding assay (ELISA), PDZ domain 9; settings: immobilized GST-PDZ domain 9 (P7); biotinylated peptide pre-bound to streptavidin-alkaline phosphatase; colorimetric phosphatase assay
T9 construct: 1439-1529; made in house; host or cells: E. coli
T9 sequence (O75970 1439-1529 isoform O75970-3): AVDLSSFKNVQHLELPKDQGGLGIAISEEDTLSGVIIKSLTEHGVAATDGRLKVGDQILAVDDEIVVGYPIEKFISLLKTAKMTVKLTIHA
From the text: as §1, §2

MMSC2 PDZ domain 3 (P13) = molecular target: T10, MMSC2 PDZ domain 3 (P13) (Homo sapiens, UniProt O75970); assay: PDZ binding assay (ELISA), PDZ domain 3; settings: immobilized GST-PDZ domain 3 (P13); biotinylated peptide pre-bound to streptavidin-alkaline phosphatase; colorimetric phosphatase assay
T10 construct: 376-461; made in house; host or cells: E. coli
T10 sequence (O75970 376-461 isoform O75970-3): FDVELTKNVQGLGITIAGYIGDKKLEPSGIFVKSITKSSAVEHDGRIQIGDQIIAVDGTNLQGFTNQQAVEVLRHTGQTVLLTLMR
From the text: as §1, §2

MMSC2 PDZ domain 11 (P2) = molecular target: T11, MMSC2 PDZ domain 11 (P2) (Homo sapiens, UniProt O75970); assay: PDZ binding assay (ELISA), PDZ domain 11; settings: immobilized GST-PDZ domain 11 (P2); biotinylated peptide pre-bound to streptavidin-alkaline phosphatase; colorimetric phosphatase assay
T11 construct: 1691-1772; made in house; host or cells: E. coli
T11 sequence (O75970 1691-1772 isoform O75970-3): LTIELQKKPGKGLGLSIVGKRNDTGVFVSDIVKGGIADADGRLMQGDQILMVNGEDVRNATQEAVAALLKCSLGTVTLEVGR
From the text: as §1, §2

MMSC2 PDZ domain 12 (P3) = molecular target: T12, MMSC2 PDZ domain 12 (P3) (Homo sapiens, UniProt O75970); assay: PDZ binding assay (ELISA), PDZ domain 12; settings: immobilized GST-PDZ domain 12 (P3); biotinylated peptide pre-bound to streptavidin-alkaline phosphatase; colorimetric phosphatase assay
T12 construct: 1828-1913; made in house; host or cells: E. coli
T12 sequence (O75970 1828-1913 isoform O75970-3): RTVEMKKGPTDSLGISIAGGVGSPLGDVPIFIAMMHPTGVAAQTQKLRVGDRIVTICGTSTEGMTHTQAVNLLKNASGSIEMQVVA
From the text: as §1, §2

MMSC2 PDZ domain 2 (P14) = molecular target: T13, MMSC2 PDZ domain 2 (P14) (Homo sapiens, UniProt O75970); assay: PDZ binding assay (ELISA), PDZ domain 2; settings: immobilized GST-PDZ domain 2 (P14); biotinylated peptide pre-bound to streptavidin-alkaline phosphatase; colorimetric phosphatase assay
T13 construct: 256-335; made in house; host or cells: E. coli
T13 sequence (O75970 256-335 isoform O75970-3): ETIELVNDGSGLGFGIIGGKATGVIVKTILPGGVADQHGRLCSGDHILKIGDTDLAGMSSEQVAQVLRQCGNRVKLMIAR
From the text: as §1, §2

Row | Substance | A405 (MMSC2 PDZ domain 8 (P8)) | A405 (MMSC2 PDZ domain 6 (P11)) | interaction of PDZ domain with MMAC1 (in words) (MMSC2 PDZ domain 10 (P1); PDZ domain number 10) | A405 (MMSC2 PDZ domain 10 (P1)) | interaction of PDZ domain with MMAC1 (in words) (MMSC2 PDZ domain 13 (P4); PDZ domain number 13) | A405 (MMSC2 PDZ domain 13 (P4)) | A405 (MMSC2 PDZ domain 5 (P12)) | A405 (MMSC2 PDZ domain 4 (P10)) | A405 (MMSC2 PDZ domain 1 (P15)) | interaction of PDZ domain with MMAC1 (in words) (MMSC2 PDZ domain 7 (P9); PDZ domain number 7, 7 appearing stronger) | A405 (MMSC2 PDZ domain 7 (P9)) | A405 (MMSC2 PDZ domain 9 (P7)) | A405 (MMSC2 PDZ domain 3 (P13)) | A405 (MMSC2 PDZ domain 11 (P2)) | A405 (MMSC2 PDZ domain 12 (P3)) | A405 (MMSC2 PDZ domain 2 (P14))
1 | Biotin-ENEPFDEDQHTQITKV-OH [MMAC1] | 0.006 | 0.016 | interact | 0.174 | interact | 0.456 | 0.000 | 0.024 | 0.011 | interact | 0.667 | 0.017 | 0.006 | 0.012 | 0.003 | 0.001
2 | Biotin-SGSGILAPPVPPRNTR-OH [SH3, reference compound] | 0.008 | 0.017 | – | 0.002 | – | 0.006 | 0.005 | 0.010 | 0.007 | – | 0.006 | 0.009 | 0.008 | 0.009 | 0.011 | 0.006
